{"source": "ChEMBL document CHEMBL2074279", "about": "“Pharmacokinetics of 5 (and 6)-carboxy-2',7'-dichlorofluorescein and its diacetate promoiety in the liver” (J Pharmacol Exp Ther, 2003)", "key": {"[1]": {"biological_target": "ATP-binding cassette sub-family C member 2 (Rattus norvegicus, UniProt Q63120)", "sequence (Q63120 whole entry)": "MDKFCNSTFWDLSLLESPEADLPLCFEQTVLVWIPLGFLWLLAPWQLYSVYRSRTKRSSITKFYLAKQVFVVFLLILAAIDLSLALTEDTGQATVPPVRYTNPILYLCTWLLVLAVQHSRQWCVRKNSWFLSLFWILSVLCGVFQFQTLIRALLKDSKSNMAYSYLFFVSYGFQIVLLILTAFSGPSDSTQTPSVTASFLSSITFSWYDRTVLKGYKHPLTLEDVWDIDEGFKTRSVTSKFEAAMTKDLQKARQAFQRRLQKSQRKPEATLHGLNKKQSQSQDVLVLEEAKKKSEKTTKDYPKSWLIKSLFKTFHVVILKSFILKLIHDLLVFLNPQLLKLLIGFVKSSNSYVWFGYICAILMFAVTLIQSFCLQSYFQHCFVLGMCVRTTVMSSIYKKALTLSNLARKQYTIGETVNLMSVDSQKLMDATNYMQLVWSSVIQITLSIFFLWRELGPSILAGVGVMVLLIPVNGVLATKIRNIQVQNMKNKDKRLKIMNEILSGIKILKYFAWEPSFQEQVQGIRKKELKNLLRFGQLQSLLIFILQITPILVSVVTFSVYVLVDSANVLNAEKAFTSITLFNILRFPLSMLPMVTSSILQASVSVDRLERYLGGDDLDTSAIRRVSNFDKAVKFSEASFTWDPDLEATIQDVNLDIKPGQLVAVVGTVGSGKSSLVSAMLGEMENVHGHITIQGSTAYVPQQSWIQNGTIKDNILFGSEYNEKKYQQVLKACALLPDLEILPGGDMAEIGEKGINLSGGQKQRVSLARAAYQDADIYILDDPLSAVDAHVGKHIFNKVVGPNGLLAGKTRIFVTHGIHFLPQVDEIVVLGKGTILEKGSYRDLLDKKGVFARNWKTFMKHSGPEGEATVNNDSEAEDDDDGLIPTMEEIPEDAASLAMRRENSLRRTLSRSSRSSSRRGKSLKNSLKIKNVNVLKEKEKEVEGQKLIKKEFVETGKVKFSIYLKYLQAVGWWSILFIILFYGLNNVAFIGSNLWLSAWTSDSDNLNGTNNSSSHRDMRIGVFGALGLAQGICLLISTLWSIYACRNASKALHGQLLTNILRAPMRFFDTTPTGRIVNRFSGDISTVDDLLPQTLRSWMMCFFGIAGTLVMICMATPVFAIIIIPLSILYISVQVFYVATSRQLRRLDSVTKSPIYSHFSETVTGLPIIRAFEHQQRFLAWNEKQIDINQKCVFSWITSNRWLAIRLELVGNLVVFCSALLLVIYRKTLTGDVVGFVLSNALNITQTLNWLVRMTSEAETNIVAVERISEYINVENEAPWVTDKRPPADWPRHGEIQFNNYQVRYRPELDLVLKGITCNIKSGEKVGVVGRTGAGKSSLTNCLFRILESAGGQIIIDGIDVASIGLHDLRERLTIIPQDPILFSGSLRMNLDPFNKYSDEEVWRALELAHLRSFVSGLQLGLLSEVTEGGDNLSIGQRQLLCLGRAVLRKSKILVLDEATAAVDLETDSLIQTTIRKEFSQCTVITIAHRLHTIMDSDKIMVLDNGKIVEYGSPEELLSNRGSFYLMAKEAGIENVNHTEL", "test": "TP_TRANSPORTER: inhibition of CDF uptake (CDF: 10 uM, Probenecid: 260 uM) in Mrp2-expressing Sf9 cells", "assay_type": "functional", "details": "sf9, 260 µM"}, "[2]": {"biological_target": "ATP-binding cassette sub-family C member 3 (Rattus norvegicus, UniProt O88563)", "sequence (O88563 whole entry)": "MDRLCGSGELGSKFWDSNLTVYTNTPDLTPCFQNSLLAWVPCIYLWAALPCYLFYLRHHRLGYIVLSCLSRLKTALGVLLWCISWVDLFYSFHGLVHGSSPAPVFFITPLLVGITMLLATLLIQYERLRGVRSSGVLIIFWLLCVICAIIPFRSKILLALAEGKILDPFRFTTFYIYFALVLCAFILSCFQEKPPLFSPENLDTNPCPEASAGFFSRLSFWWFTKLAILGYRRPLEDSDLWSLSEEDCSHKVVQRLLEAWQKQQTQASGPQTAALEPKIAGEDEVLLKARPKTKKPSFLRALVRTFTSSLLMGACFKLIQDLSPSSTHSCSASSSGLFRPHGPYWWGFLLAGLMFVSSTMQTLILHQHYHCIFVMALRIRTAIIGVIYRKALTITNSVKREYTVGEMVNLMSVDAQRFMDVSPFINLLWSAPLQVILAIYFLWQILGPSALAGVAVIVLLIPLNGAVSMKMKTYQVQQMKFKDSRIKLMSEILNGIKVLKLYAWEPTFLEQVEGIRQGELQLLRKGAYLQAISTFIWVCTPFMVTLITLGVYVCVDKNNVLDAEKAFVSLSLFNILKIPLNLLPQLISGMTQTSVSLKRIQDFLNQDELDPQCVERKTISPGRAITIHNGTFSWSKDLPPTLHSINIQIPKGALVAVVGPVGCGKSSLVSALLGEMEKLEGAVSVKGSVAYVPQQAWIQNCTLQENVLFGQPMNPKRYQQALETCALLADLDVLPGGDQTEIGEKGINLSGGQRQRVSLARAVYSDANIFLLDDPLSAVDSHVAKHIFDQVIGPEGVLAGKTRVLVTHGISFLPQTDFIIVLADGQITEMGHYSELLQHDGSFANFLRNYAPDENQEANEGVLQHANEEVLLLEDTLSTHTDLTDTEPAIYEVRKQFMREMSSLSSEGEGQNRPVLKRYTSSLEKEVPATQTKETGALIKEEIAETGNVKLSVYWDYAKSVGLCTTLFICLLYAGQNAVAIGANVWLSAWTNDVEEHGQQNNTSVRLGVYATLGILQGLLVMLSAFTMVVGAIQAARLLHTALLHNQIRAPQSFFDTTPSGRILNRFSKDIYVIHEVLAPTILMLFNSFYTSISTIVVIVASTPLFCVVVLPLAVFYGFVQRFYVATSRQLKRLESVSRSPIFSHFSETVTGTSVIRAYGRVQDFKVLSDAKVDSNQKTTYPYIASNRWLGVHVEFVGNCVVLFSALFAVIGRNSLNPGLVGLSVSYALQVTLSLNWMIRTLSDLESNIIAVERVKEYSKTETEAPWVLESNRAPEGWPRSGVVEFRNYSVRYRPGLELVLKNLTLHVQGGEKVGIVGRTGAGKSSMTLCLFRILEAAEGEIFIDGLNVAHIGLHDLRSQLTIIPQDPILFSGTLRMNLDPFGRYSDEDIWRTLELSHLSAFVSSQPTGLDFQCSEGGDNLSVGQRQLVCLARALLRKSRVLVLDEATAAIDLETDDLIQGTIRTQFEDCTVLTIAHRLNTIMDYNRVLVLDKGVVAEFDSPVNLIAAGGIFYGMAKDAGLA", "test": "TP_TRANSPORTER: inhibition of CDF uptake (CDF: 10 uM, Probenecid: 260 uM) in Mrp3-expressing Sf9 cells", "assay_type": "functional", "details": "sf9, 260 µM"}}}
{"smiles": "CCCN(CCC)S(=O)(=O)c1ccc(C(=O)O)cc1", "note": "[PROBENECID]", "values": [{"measurement": "Activity", "setting": "[1]", "value": "inhibitor [(at a rough estimate) 40 % of control]"}, {"measurement": "Activity", "setting": "[2]", "value": "inhibitor [(at a rough estimate) 35 % of control]"}]}
